# Source: US20060166934A1, “Composition comprising phytosphingosine derivatives for apoptosis induction” (Tae-Yoon Kim, priority 2002, published 2006)
# Like-named read-outs stand apart in the source and are kept apart here.
# Key:
# [1] = MTT assay, cytotoxicity in human keratinocyte cell line; type: cell-based; details: human, Cell viability
# Summary of the method: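 HaCaT keratinocytes, 1-2×10^4 cells per well in serum-free medium, treated 24 h with phytosphingosine derivatives (1-100 μM, DMSO vehicle). Viability by MTT (2 mg/ml, 4 h), formazan dissolved in DMSO, O.D. read at 540 nm.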
# [2] = MTT assay, cytotoxicity in human skin cancer cell line; type: cell-based; details: human, Cell viability
# Summary of the method: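 A431 cells were seeded in serum-free medium and, about 3 h later, treated 24 h with phytosphingosine derivatives at final 1–100 μM (DMSO vehicle). MTT (2 mg/ml) was then added for 4 h, and the formazan was dissolved in DMSO and read at 540 nm for viability. C2-ceramide served as comparator.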
# [3] = MTT assay, combined treatment with UVB irradiation; type: cell-based, human; details: human, HaCaT cells, HaCaT, read-out: Cell viability
# Summary of the method: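 HaCaT cells in PBS irradiated with 200 J/m^2 UVB, then returned to DMEM and treated with test compounds for 24 h. Viability by MTT (2 mg/ml, 4 h), formazan dissolved in DMSO and read at 540 nm.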
# [4] = test system: peripheral blood mononuclear cells (PBMC); assay: MTT assay, cytotoxicity in peripheral blood mononuclear cells; type: cell-based, human; details: FIG. 3
# Protocol: The effects of the composition of the present invention on the cytotoxicity in immune cells (T cells, B cells, macrophages, monocytes, etc.) obtained from human blood were examined. The blood was obtained from healthy volunteers and PBMC from the blood by mechanical aggregation method. And mononuclear cells containing T cells, B cells, macrophages and monocytes were isolated from single cells by density gradient centrifugation method using Ficoll Hypaque. Briefly, single cells were treated with PBS and overlayed on Ficoll Hypaque and centrifuged at 1500 rpm for 30 min. After centrifugation, the cells around the boundary of the Ficoll-Hapaque were collected and washed three times with PBS. […] And RPMI with 10% of serum was used as a medium. The isolated cells were cultured for 24 hours in the presence of 1, 10, 50 and 100 μM of NAPS, TAPS, and PS to examine the effect of cytotoxicity, i.e. the degree of proliferation of the cells. C2-ceramide was used as control.
# [5] = test system: HaCaT cells; assay: Cell cycle by flow cytometric analysis; type: cell-based, human; details: FIG. 8
# Protocol: The effects of the compositions of the present invention on the cell cycle are reviewed. In the flow cytometric analysis, the cells are treated with trypsin according to each time interval, collected and washed with PBS. They are fixed by using 80% ethanol, and propidium iodide and RNase are added to them. Thereafter, the cell cycle is analyzed by using a flow cytometer.
# [6] = test system: HaCaT cells; assay: Mitosis by immunofluorescence (β-tubulin, DAPI); type: cell-based, human; details: 30 μM, 24 hours versus 12 hours, FIG. 9
# Protocol: Next, the cell cycle is observed according to the immunofluorescence method. In order to look into from which step among G2/M phase the induction of apoptosis by TAPS is induced, mitosis is observed by using β-tubulin. HaCaT cells are cultured on a dish with a cover slip and treated with TAPS (30 μM). The cells are washed with PBS at each time interval, fixed with 5% paraformaldehyde for 15 minutes, and reacted with β-tubulin antibody (1:100) for 1 hour. They were washed with PBS and reacted with Cy3-conjugated anti-mouse IgG secondarily. For DNA staining, 0.3 μg/ml of DAPI (Sigma) is added to the cells, which are observed by using a fluorescent microscope.
molecule,measurement,setting,value
"CCCCCCCCCCCCCC[C@@H](O)[C@@H](O)[C@H](CO)NC(C)=O [NAPS, N-acetyl phytosphingosine]","viability at 24 h, 1 µM",[1],103 ± 6.9%
same,"viability at 24 h, 3 µM",[1],99 ± 3.5%
same,"viability at 24 h, 10 µM",[1],86 ± 2.1%
same,"viability at 24 h, 30 µM",[1],17 ± 0.8%
same,"viability at 24 h, 3 µM",[2],100 ± 10.2%
same,"viability at 24 h, 10 µM",[2],75 ± 6.9%
same,"viability at 24 h, 30 µM",[2],31 ± 10%
same,"viability at 24 h, 50 µM",[2],1 ± 0.2%
same,"viability at 24 h, 1 µM","[3]; 1 μM + UVB 200 J/m^2, 24 hours",27 ± 5.8%
same,"viability at 24 h, 1 µM","[3]; 1 μM, no UVB, 24 hours",130 ± 10%
same,"viability at 24 h, 3 µM","[3]; 3 μM + UVB 200 J/m^2, 24 hours",17 ± 1.6%
same,"viability at 24 h, 3 µM","[3]; 3 μM, no UVB, 24 hours",117 ± 9.7%
same,"viability at 24 h, 5 µM","[3]; 5 μM + UVB 200 J/m^2, 24 hours",11 ± 1.3%
same,"viability at 24 h, 5 µM","[3]; 5 μM, no UVB, 24 hours",110 ± 14%
same,"viability at 24 h, 10 µM","[3]; 10 μM + UVB 200 J/m^2, 24 hours",1 ± 0.1%
same,"viability at 24 h, 10 µM","[3]; 10 μM, no UVB, 24 hours",67 ± 12%
tetraacetyl phytosphingosine [TAPS],concentration that shows the strong cytotoxicity,[4]; human PBMC,50 µM
same,cytotoxicity to PBMC,"[4]; up to 100 μM, 24 hours",strong cytotoxicity
same,G2/M phase,[5]; thereafter up to 24 hours,reduced continuously
same,sub G1 phase (apoptotic cells),[5]; thereafter up to 24 hours,increased relatively
same,G2/M phase,[5]; up to 12 hours after treating,increased relatively
same,S phase,[5]; up to 12 hours after treating,reduced
same,cells with chromosomes condensed,[6],more cells with chromosomes condensed are observed 24 hours after treating with TAPS than 12 hours after
